Measurements reported in EP1350523B1 (priority 1992, dated 1994).

System: vascular smooth muscle cells
Assay: 24 hour 3H-thymidine DNA synthesis inhibition assay compared with 24 hour 3H-leucine protein inhibition assay
Assay type: cell-based
Conditions: for therapeutic range (area under the curve of 3H-leucine assay greater than that of 3H-thymidine assay): 24 hour exposure, 5% FBS; for protein synthesis inhibition and cytotoxicity at concentrations where significant DNA synthesis inhibition occurs: Example 8, Figs. 10A-10C
Description: The ability of various therapeutic agents to inhibit DNA synthesis and protein synthesis in vascular smooth muscle cells was tested. ^3H-leucine and ^3H-thymidine uptake and cytotoxicity assays were conducted in accordance with the following protocols.
3H-leucine uptake: Vascular smooth muscle cells at 40,000 cells/ml were seeded in sterile 24 well plates at 1ml/well. The plates were incubated overnight at 37°C, 5% CO2, 95% air in a humidified atmosphere (saturation). Log dilutions of the therapeutic agent of interest were incubated with the vascular smooth muscle cells for 5 minutes or 24 hours. Samples of the therapeutic agents were diluted in DMEM: F-12 media (Whittaker Bioproducts, Walkersville, Maryland) with 5% fetal bovine serum (GBS. Gibco) and 5% Serum Plus® (JRH Biologicals). Following therapeutic agent incubation, the solution was aspirated, and 1ml/well of 0.5 microcurie/ml ^3H-leucine in leucine free DMEM (Dulbecco's Modified Eagle's Medium) with 5% Serum Plus® was added. The plates were re-incubated overnight at 37°C, 5% CO2 in a humidified atmosphere. The cells were visually graded using an inverted microscope using a scoring scale to determine viability and cell number. The 1 to 3 grade is based upon percent of cell viability and number compared to control wells, with 3=100%, 2=70%-100% and 1=0%-70%. A record of this scoring assisted in determining the immediate cytotoxic effect of the therapeutic agents. The media was then aspirated, and the cells were washed twice with cold 5% TCA. 400 microliters of 0.2M NaOH was added per well, and the plates were incubated for two hours at room temperature on a rotating platform. 200 microliters per well of the cell solution was transferred into plastic scintillation vials (Bio-Rad Laboratories), and 4 milliliters of Bio-Safe® II liquid scintillation fluid was added prior to vortexing. Vials were counted on a Beckman LS2800 Liquid Scintillation Counter interfaced with Beckman "Data Capture" software for conversion to a Lotus 1-2-3® file and analysis using Lotus 1-2-3®.
^3H-thymidine uptake: Vascular smooth muscle cells were incubated in complete media with 5% FBS (Gibco) overnight at 37°C in a humidified, 5% CO2 environment in sterile 24 well plates. The media was aspirated from the wells and serum free media supplemented with growth factors (DMEM: F-12 basal media supplemented with growth factor cocktail catalog number I1884 which contains insulin (5 micrograms/ml), transferrin (5 micrograms/ml) and sodium selenite (5 nanograms/ml) available from Sigma Chemical, St. Louis, Missouri) was added. Cells were incubated in this media for 24 hours. For a 5 minute therapeutic agent exposure, log dilutions of the therapeutic agent were incubated with the cells in complete media. After 5 minutes and media aspiration, 1 ml/well of 1.0 microcurie/ml ^3H-thymidine dispersed in complete media was added. The 24 hour exposure involved incubation of the cells with 1 ml/well of 1.0 microcurie/ml of ^3H-thymidine dispersed in complete media and log dilutions of the therapeutic agent being tested. In both exposure trials, the cells were then incubated overnight at 37°C in a humidified, 5% CO2 environment. The cells were visually scored for viability and cell number. […] Vials were counted on a Beckman LS2800 Liquid Scintillation Counter interfaced with Beckman "Data Capture" software for conversion to a Lotus 1-2-3° file and analysis using Lotus 1-2-30®.

| SMILES | therapeutic range (area under the curve of 3H-leucine assay greater than that of 3H-thymidine assay) | protein synthesis inhibition and cytotoxicity at concentrations where significant DNA synthesis inhibition occurs |
| --- | --- | --- |
| CN[C@@H]1C[C@H]2O[C@@](C)([C@@H]1OC)n1c3ccccc3c3c4c(c5c6ccccc6n2c5c31)C(=O)NC4 [staurosporin] | showed an available therapeutic range | – |
| Cc1ccc(C(=O)Nc2ccc(S(=O)(=O)O)c3cc(S(=O)(=O)O)cc(S(=O)(=O)O)c23)cc1NC(=O)c1cccc(NC(=O)Nc2cccc(C(=O)Nc3cc(C(=O)Nc4ccc(S(=O)(=O)O)c5cc(S(=O)(=O)O)cc(S(=O)(=O)O)c45)ccc3C)c2)c1 [suramin] | showed an available therapeutic range | minimal protein synthesis inhibition and cytotoxicity |
| O=[N+]([O-])OCC(CO[N+](=O)[O-])O[N+](=O)[O-] [nitroglycerin] | showed an available therapeutic range | minimal protein synthesis inhibition and cytotoxicity |
